Assay [1] deals with T1, PDGFβ (Homo sapiens, UniProt P09619). Description: PDGF stimulated Ca2+ signal in vitro (FLIPR). It counts as cell-based. Further details: host or cells: NHDF-Ad (normal human dermal fibroblasts). The conditions noted are these: NHDF-Ad, PDGF stimulation 10 ng/mL; Table IV, amide or urea linker; read-out: PDGFβ Cellular IC50.
The target of assay [2] is T1, PDGFβ. Briefly: PDGFβ enzyme assay. Format: biochemical. The settings on record: Table IV, amide or urea linker.
Assay [3] addresses VEGFR1 (Homo sapiens, UniProt P17948). Description: VEGFR1 enzyme assay. It counts as biochemical. The settings on record: Table IV, amide or urea linker.
In assay [4] the target is T2, human VEGF receptor (VEGFR-2) (Homo sapiens, UniProt P35968).
T2 construct: The cytoplasmic domain of the human VEGF receptor (VEGFR-2) was expressed; His; made in house; host or cells: insect cells (baculovirus)
Briefly: VEGFR2 kinase assay. It counts as biochemical. The conditions noted are these: His-VEGFR-2 cytoplasmic domain, 3.6 μM ATP; Table IV, amide or urea linker; read-out: VEGFR2 Enzyme IC50. An outline of the steps: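 His-tagged VEGFR-2 cytoplasmic domain from baculovirus-infected insect cells phosphorylating plate-bound poly-Glu-Tyr (4:1). IC50 from blank-subtracted optical density versus compound concentration.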

The target of assay [5] is VEGFR2 (Homo sapiens, UniProt P35968). Briefly: VEGF stimulated Ca++ signal in vitro (FLIPR).
Sequence of VEGFR2 (P35968 20-1356): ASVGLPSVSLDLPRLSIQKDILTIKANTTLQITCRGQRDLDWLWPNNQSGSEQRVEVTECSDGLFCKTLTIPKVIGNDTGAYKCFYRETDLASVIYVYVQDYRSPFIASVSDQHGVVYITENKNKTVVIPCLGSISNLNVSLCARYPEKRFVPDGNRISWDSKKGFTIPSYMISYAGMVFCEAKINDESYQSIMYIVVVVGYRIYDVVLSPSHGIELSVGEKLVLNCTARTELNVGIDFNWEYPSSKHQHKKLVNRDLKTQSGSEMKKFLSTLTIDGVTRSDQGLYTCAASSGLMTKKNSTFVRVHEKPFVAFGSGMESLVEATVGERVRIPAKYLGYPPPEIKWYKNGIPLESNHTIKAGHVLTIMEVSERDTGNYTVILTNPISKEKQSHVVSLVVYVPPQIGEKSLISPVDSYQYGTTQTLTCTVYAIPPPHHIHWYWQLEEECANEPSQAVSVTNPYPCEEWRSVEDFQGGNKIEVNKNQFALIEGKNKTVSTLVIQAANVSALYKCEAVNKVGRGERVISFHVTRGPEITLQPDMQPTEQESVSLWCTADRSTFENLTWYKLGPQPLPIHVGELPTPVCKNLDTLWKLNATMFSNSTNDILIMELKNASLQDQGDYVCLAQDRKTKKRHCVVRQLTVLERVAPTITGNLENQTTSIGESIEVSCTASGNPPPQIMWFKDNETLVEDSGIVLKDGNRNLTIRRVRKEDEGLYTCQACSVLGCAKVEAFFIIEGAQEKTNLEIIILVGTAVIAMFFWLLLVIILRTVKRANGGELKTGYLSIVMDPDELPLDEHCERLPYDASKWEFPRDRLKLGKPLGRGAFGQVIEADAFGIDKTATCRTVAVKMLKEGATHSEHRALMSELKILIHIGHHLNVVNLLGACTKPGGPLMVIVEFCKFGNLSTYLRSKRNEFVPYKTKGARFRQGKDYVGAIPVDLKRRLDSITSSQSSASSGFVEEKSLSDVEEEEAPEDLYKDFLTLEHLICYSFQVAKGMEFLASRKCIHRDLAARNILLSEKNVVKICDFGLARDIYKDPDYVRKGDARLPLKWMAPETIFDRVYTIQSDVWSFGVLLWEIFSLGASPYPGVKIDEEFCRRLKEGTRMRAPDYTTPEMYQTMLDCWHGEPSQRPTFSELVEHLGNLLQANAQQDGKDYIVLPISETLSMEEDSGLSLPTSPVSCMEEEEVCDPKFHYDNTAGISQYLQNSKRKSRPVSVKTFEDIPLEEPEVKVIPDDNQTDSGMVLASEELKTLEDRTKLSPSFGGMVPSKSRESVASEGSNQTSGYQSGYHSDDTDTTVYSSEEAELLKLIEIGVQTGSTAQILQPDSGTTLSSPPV
Procedure: VEGF Stimulated Ca^++Signal in Vitro
Automated FLIPR (Fluorometric Imaging Plate Reader) technology was used to screen for inhibitors of VEGF induced increases in intracellular calcium levels in fluorescent dye loaded endothelial cells. HUVEC (human umbilical vein endothelial cells) (Clonetics) were seeded in 96-well fibronectin coated black-walled plates overnight at 37 degree. C./5% CO2. […] C. Cells were washed 4 times (Original Cell Wash, Labsystems) to remove extracellular dye. […] Data were generated by determining max-min fluorescence levels for unstimulated, stimulated, and drug treated samples. IC50 values for test compounds were calculated from % inhibition of VEGF stimulated responses in the absence of inhibitor.

T1 sequence (P09619 33-1106): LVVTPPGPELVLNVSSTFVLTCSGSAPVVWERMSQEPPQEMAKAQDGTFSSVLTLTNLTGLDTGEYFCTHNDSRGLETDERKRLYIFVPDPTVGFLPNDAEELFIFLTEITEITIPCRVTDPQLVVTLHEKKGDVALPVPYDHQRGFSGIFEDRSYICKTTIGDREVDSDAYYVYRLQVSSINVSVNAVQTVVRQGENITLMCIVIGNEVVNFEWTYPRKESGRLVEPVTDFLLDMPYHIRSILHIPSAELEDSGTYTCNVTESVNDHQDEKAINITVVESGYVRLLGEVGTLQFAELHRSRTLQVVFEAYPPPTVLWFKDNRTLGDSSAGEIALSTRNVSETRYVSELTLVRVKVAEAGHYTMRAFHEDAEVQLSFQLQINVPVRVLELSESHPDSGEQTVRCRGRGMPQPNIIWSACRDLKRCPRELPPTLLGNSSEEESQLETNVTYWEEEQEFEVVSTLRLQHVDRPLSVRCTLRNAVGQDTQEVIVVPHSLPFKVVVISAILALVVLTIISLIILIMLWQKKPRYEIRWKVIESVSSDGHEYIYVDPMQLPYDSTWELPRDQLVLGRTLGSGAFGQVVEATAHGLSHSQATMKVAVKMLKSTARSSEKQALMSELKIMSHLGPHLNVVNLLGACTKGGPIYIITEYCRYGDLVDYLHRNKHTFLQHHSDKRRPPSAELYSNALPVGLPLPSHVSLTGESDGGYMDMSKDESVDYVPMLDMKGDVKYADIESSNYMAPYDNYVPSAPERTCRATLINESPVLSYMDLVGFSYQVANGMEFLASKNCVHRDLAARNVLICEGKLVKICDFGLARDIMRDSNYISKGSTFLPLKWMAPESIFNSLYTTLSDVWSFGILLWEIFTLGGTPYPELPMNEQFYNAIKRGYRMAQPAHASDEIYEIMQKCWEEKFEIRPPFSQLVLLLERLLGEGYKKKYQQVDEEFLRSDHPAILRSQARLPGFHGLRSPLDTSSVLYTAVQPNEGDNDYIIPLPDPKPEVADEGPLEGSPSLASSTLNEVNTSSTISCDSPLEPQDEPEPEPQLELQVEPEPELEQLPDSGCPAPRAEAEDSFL
Sequence of VEGFR1 (P17948 27-1338, species assumed): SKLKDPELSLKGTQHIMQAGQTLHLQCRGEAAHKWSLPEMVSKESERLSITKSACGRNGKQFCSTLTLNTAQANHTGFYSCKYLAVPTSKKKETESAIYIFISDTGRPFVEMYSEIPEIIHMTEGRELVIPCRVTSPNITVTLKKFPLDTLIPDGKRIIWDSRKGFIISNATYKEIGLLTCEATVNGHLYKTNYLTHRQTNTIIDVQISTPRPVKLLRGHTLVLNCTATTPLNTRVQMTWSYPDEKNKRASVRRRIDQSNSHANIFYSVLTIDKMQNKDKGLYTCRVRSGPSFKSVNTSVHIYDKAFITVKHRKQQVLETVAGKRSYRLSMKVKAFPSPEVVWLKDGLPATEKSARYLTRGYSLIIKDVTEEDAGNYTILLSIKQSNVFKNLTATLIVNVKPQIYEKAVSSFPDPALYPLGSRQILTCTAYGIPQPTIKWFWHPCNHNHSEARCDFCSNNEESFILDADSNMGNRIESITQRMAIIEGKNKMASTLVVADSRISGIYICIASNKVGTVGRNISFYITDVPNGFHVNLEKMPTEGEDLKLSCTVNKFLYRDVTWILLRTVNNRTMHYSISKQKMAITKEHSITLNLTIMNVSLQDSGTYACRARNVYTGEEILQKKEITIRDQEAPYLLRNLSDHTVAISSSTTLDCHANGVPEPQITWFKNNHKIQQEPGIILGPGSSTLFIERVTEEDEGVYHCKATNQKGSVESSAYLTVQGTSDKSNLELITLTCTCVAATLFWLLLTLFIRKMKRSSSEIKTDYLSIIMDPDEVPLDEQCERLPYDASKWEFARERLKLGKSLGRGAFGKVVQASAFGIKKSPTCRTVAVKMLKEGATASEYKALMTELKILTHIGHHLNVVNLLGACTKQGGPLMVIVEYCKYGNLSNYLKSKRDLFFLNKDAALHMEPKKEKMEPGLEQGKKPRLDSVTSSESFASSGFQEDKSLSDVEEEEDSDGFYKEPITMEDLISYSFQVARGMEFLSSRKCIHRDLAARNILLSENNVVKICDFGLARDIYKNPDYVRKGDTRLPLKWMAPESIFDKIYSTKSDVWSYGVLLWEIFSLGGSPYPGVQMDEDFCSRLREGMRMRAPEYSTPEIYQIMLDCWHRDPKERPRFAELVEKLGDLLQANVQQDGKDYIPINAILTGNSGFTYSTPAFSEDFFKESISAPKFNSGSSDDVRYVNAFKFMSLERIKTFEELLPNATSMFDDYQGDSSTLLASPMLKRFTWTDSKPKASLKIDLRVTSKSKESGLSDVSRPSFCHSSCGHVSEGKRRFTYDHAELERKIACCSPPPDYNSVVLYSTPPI
T2 sequence (P35968 786-1356 limits assumed): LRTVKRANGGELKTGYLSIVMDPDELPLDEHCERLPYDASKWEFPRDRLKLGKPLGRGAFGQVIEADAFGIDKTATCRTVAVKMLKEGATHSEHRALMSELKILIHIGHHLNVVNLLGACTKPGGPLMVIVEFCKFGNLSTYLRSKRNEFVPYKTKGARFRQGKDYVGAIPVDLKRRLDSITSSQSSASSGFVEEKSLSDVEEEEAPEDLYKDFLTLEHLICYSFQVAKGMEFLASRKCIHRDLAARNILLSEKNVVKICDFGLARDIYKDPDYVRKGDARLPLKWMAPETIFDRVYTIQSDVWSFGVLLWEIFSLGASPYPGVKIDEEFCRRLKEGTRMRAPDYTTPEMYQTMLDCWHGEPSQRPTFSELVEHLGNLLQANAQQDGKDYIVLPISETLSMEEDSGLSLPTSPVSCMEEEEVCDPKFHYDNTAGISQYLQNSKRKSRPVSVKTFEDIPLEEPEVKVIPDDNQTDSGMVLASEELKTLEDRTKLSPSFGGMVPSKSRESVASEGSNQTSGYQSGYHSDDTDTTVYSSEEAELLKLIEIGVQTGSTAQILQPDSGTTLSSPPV

The term IC50 denotes the concentration at which inhibition is half-maximal. `COC(=O)CCNC(=O)c1c[nH]c(-c2cc(Oc3ccc(NC(=O)Nc4cc(C)ccc4F)c(F)c3)ccn2)c1` [Example 175, methyl 3-{[(5-{4-[3-fluoro-4-({[(2-fluoro-5-methylphenyl)amino]carbonyl}amino)phenoxy]pyridin-2-yl}-1H-pyrrol-3-yl)carbonyl]amino}propanoate]: the IC50 in assay [1] amounted to 32 nM; in assay [2], 34 nM.

Consider `COC(=O)CCCNC(=O)c1c[nH]c(-c2cc(Oc3ccc(NC(=O)Nc4cc(C)ccc4F)cc3)ccn2)c1` [Example 176, methyl 4-{[(5-{4-[4-({[(2-fluoro-5-methylphenyl)amino]carbonyl}amino)phenoxy]pyridin-2-yl}-1H-pyrrol-3-yl)carbonyl]amino}butanoate], for which the figures for the IC50 in assay [1] and in assay [2] were 78 nM and 38 nM, respectively.

Turning to `CCOC(=O)CCNC(=O)c1c[nH]c(-c2cc(Oc3ccc(NC(=O)Nc4cc(C)ccc4F)c(F)c3)ccn2)c1` [Example 231, ethyl 3-{[(5-{4-[3-fluoro-4-({[(2-fluoro-5-methylphenyl)amino]carbonyl}amino)phenoxy]pyridin-2-yl}-1H-pyrrol-3-yl)carbonyl]amino}propanoate], the IC50 was found to be 32 nM in assay [1] and 43 nM in assay [2].

In the case of `COC(=O)CN(CCCNC(=O)c1c[nH]c(-c2cc(Oc3ccc(NC(=O)Nc4cc(C)ccc4F)cc3)ccn2)c1)CC(=O)OC` [Example 232, dimethyl 2,2′-[(3-{[(5-{4-[4-({[(2-fluoro-5-methylphenyl)amino]carbonyl}amino)phenoxy]pyridin-2-yl}-1H-pyrrol-3-yl)carbonyl]amino}propyl)imino]diacetate], the IC50 in assay [3] came to 16 nM; in assay [4], 9 nM; in assay [2], 20 nM; in assay [5], 5 nM.

For the molecule `Cc1cccc(NC(=O)Nc2ccc(Oc3ccnc(-c4cc(C(=O)NCCCO)c[nH]4)c3)cc2)c1` [Example 237], the IC50 is 8 nM in assay [3], 8 nM in assay [4], 19 nM in assay [2] and 3 nM in assay [5].

For the molecule `Cc1ccc(F)c(NC(=O)Nc2ccc(Oc3ccnc(-c4cc(C(=O)NN)c[nH]4)c3)cc2)c1` [Example 241, 1-(2-fluoro-5-methylphenyl)-3-[4-({2-[4-(hydrazinocarbonyl)-1H-pyrrol-2-yl]pyridin-4-yl}oxy)phenyl]urea], the IC50 in assay [3] worked out at 19 nM; in assay [4] it was 10 nM; in assay [2], 27 nM; in assay [5], 4 nM.

With `COC(=O)[C@@H]1CCCN1CCCNC(=O)c1c[nH]c(-c2cc(Oc3cc(C(=O)Nc4cc(C)ccc4F)ccc3F)ccn2)c1` [Example 243, methyl (2S)-1-{3-[({5-[4-(2-fluoro-5-{[(2-fluoro-5-methylphenyl)amino]carbonyl}phenoxy)pyridin-2-yl]-1H-pyrrol-3-yl}carbonyl)amino]propyl}pyrrolidine-2-carboxylate], the IC50 in assay [3] stood at 39 nM; in assay [4], 16 nM; in assay [2], 80 nM; in assay [5] it was 5 nM.

Take `COC(=O)CC[C@H](NC(=O)c1c[nH]c(-c2cc(Oc3ccc(NC(=O)Nc4cc(C)ccc4F)c(F)c3)ccn2)c1)C(=O)OC` [Example 270, dimethyl 2-{[(5-{4-[3-fluoro-4-({[(2-fluoro-5-methylphenyl)amino]carbonyl}amino)phenoxy]pyridin-2-yl}-1H-pyrrol-3-yl)carbonyl]amino}pentanedioate]: the IC50 in assay [3] is 8 nM; in assay [4], 7 nM; in assay [2], 18 nM; in assay [5] it was 8 nM.

For `Cc1ccc(F)c(NC(=O)Nc2ccc(Oc3ccnc(-c4cc(C(=O)OCCCN5CCOCC5)c[nH]4)c3)cc2)c1` [Example 274, 3-morpholin-4-ylpropyl 5-{4-[4-({[(2-fluoro-5-methylphenyl)amino]carbonyl}amino)phenoxy]pyridin-2-yl}-1H-pyrrole-3-carboxylate], the IC50 in assay [3] amounted to 16 nM; in assay [4] it was 11 nM; in assay [2], 27 nM; in assay [5] it was 10 nM.

Values taken from patent publication US8906944B2, “Compounds as tyrosine kinase modulators” (Allergan, Inc., priority 2009, dated 2014).
